Drawing on patent publication US20210220356A1, “DIHYDROPYRIMIDINE DERIVATIVES AND USES THEREOF IN THE TREATMENT OF HBV INFECTION OR OF HBV-INDUCED DISEASES” (Janssen Sciences Ireland Unlimited Company, priority 2018, published 2021), this text covers EC50 and CC50 for four compounds.

Read-outs that look alike come from different tables or passages of the source.

One series relates to HBV. The series can be described thus: HBV inhibitory activity in HepG2.2.15 cells (HBV DNA in culture medium by q-PCR). The format is cell-based. The gist of the method:
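HepG2.2.15 cells (40,000/well, 2% FBS) treated 6 days with compounds, medium refreshed once; 8 points, 3-fold dilution, top 10 uM. Secreted HBV DNA in medium extracted and quantified by q-PCR; EC50 calculated from dose-response.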

A short description of series [1]: Cytotoxicity determination in HepG2.2.15 cells (CCK-8). The series is classed as cell-based. The following applies: human, HepG2.2.15 cells, 5,000 cells/well, 6 days of compound treatment, CCK-8 absorbance 450 nm, highest concentration 100 uM. The method in brief: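 HepG2.2.15 cells, 5,000/well in 2% FBS medium, treated 6 days with compound (medium refreshed midway), 8-point 3-fold dilutions from 100 uM top. Viability read by CCK-8, 2.5 h at 37° C, absorbance 450 nm with 630 nm reference; CC50 from curve fitting.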

Setting [2] is: HepG2.2.15 cells, 40,000 cells/well, 6 days of compound treatment, HBV DNA in culture medium by q-PCR, highest concentration 10 uM, read-out: EC50.

As to `COC(=O)C1=C(C2CCc3nc([C@H]4C[C@H](C(=O)O)C4)oc3C2)NC(c2nccs2)=NC1c1ccc(F)c(F)c1Cl` (single isomer, unassigned) [Compound 72b, (trans)-3-(6-(6-(2-Chloro-3,4-difluorophenyl)-5-(methoxycarbonyl)-2-(thiazol-2-yl)-3,6-dihydropyrimidin-4-yl)-4,5,6,7-tetrahydrobenzo[d]oxazol-2-yl)cyclobutanecarboxylic acid], the 50% effective concentration (EC50) (as a rule, the concentration at which the effect is half-maximal) in the series on HBV (setting [2]) stood at 0.0215 µM. In addition, the CC50 (commonly the concentration giving 50% cytotoxicity) at 6 days in series [1] (HepG2.2.15 cells) was found to be 7 µM.

As to `CCOC(=O)C1=C(C2CCc3nn(CCC(=O)O)cc3C2)NC(c2nccs2)=NC1c1cccc(F)c1Br` (single isomer, unassigned) [Compound 42b, 3-(5-(6-(2-bromo-3-fluorophenyl)-5-(ethoxycarbonyl)-2-(thiazol-2-yl)-3,6-dihydropyrimidin-4-yl)-4,5,6,7-tetrahydro-2H-indazol-2-yl)propanoic acid], the EC50 with HBV (setting [2]) came out at 0.131 µM. The same compound registered a CC50 at 6 days in series [1] (HepG2.2.15 cells) of 10.2 µM.

As to `COC(=O)C1=C(C2CCc3nc(C(=O)O)oc3C2)NC(c2nccs2)=NC1c1ccc(F)c(F)c1Cl` (centres unmarked) [Compound 78c, lithium 6-(6-(2-chloro-3,4-difluorophenyl)-5-(methoxycarbonyl)-2-(thiazol-2-yl)-3,6-dihydropyrimidin-4-yl)-4,5,6,7-tetrahydrobenzo[d]oxazole-2-carboxylate], it took 0.0571 µM to reach a half-maximal effect in the series on HBV (Hepatitis B virus, HepG2.2.15, 144 h) (EC50). Further, in series [1], the CC50 at 6 days was 52 µM.

Take `COC(=O)C1=C(C2CCc3nn(CCC(=O)O)cc3C2)NC(c2nccs2)=NC1c1ccc(F)c(F)c1C` (centres unmarked) [Compound 76c, 3-(5-(6-(3,4-difluoro-2-methylphenyl)-5-(methoxycarbonyl)-2-(thiazol-2-yl)-3,6-dihydropyrimidin-4-yl)-4,5,6,7-tetrahydro-2H-indazol-2-yl)propanoic acid]: in the series on HBV (Hepatitis B virus, HepG2.2.15, 144 h, HepG2.2.15 cells, 40,000 cells/well, 6 days of compound treatment, HBV DNA in culture medium by q-PCR, highest concentration 10 uM, read-out: EC50), the EC50 worked out at 0.013 µM. The CC50 at 6 days in series [1] (HepG2.2.15 cells) was found to be 16.1 µM.
